From paper PMC6386482, “ASB20123: A novel C-type natriuretic peptide derivative for treatment of growth failure and dwarfism” (PLoS ONE, 2019)
Ends that are not written are not given here. Peptide text beside a SMILES is read from it.

Experiments:
[1] = Plasma CNP immunoreactivity after sc bolus in vehicles containing ECM in rats
Description: We prepared CNP(1–22) and ASB20123 dissolved in vehicles containing ECM and delivered them to rats as sc bolus injections at 0.58 mg/kg for evaluation of their in vivo effects (S2 Fig).

[2] = PK of CNP immunoreactivity after single intravenous administration in rats; assay type: in vivo, rat
[3] = PK of CNP immunoreactivity after single subcutaneous administration in rats; assay type: in vivo, rat
[4] = mouse, in vivo
Description: Three-week-old juvenile female ICR mice (n = 5 or 10/group) received ASB20123 sc bolus injections once daily for 8 weeks. Seven-week-old male SD rats (n = 5/group) received ASB20123 as multiple sc bolus injections or a continuous sc infusion using an osmotic mini-pump (ALZET osmotic pump, Durect Corporation, USA) for 1 or 12 weeks. Growth rate of each animal was monitored throughout the treatment and washout periods. Body weight, body (naso-anal) length, and tail length were measured weekly, and femoral and tibial lengths were measured with digital calipers on the final day. Osteocalcin concentration in mouse serum was measured as a marker of bone formation using commercially available ELISA kits (Mouse Osteocalcin EIA kit, Biomedical Technologies Inc., USA). Anti-ASB20123 antibody in mouse serum was measured using commercially available ELISA kits (Protein detector ELISA Kit, Kirkegaard & Perry Laboratories, Inc., USA) and ASB20123. The blood samples were collected from the posterior vena cava at the end of the dosing period and centrifuged to obtain serum samples. CNP immunoreactivity in rat plasma was determined by RIA as mentioned in the method of PK studies. The blood samples were collected from cervical vein at 15 min after sc bolus dosing or before necropsy for animals given a continuous sc infusion.

[5] = system: neutral endopeptidase (NEP); conditions: cited from earlier work
[6] = system: female ICR mice; assay: Skeletal growth of mice given CNP(1–22) or human CNP(1–53) sc for 3 weeks; assay type: in vivo, mouse; conditions: subcutaneous administration for 3 weeks (S3 Fig)
Text: Interstitial diffusion of macromolecules, such as HA and glycosaminoglycan, is affected by their physiochemical characteristics, including their size, charge, and hydrophilicity, as well as their interactions with the endogenous components present in the interstitium. Interaction between ASB20123 and the endogenous molecules might play a role in the diffusion and absorption processes. […] The C-terminal part of ASB20123 might interact with ECM components, such as HA and glycosaminoglycan, resulting in a delay of its absorption from the sc tissue to the circulation and improvement of its stability.
Supplementary file pone.0212680.s003.tif: S3 Fig Body weight and body length of female ICR mice subcutaneously administered CNP(1–22) and human CNP(1–53) for 3 weeks. (TIF) Click here for additional data file.

[7] = cited from earlier work
Text: C-type natriuretic peptide (CNP) is a member of the natriuretic peptide (NP) family that also includes atrial natriuretic peptide (ANP) and brain natriuretic peptide (BNP). […] However, CNP is expressed in various tissues, such as the central nervous system, reproductive tract, bone, and endothelium of blood ...

[8] = system: Crouzon syndrome mouse model; conditions: cited from earlier work
Text: (§1) In the previous study, we designed and evaluated some CNP/ghrelin chimeric peptides as novel CNP derivatives. […] In the current study, we prepared another novel CNP/ghrelin chimeric peptide ASB20123 and evaluated its pharmacological activities. ASB20123 is comp ...

[9] = system: Fgfr3^ach mice; conditions: cited from earlier work
Text: as §1

[10] = anesthetized male SD rats, single iv 20 nmol/kg, plasma CNP immunoreactivity by RIA, mean of 3 rats
[11] = anesthetized male SD rats, single sc 50 nmol/kg, plasma CNP immunoreactivity by RIA, mean of 3 rats

For CC[C@H](C)[C@@H]1NC(=O)[C@H](CCCNC(=N)N)NC(=O)[C@H](CC(=O)O)NC(=O)[C@H](CC(C)C)NC(=O)[C@H](CCCCN)NC(=O)[C@H](CC(C)C)NC(=O)CNC(=O)[C@H](Cc2ccccc2)NC(=O)[C@@H](NC(=O)CNC(=O)[C@H](CCCCN)NC(=O)[C@H](CO)NC(=O)[C@H](CC(C)C)NC(=O)CN)CSSC[C@@H](C(=O)N[C@H](C(=O)N[C@@H](CCC(N)=O)C(=O)N[C@@H](CCC(N)=O)C(=O)N[C@@H](CCCNC(=N)N)C(=O)N[C@@H](CCCCN)C(=O)N[C@@H](CC(=O)O)C(=O)N[C@@H](CO)C(=O)N[C@@H](CCCCN)C(=O)N[C@@H](CCCCN)C(=O)N2CCC[C@H]2C(=O)N2CCC[C@H]2C(=O)N[C@@H](C)C(=O)N[C@@H](CCCCN)C(=O)N[C@@H](CC(C)C)C(=O)N[C@@H](CCC(N)=O)C(=O)N2CCC[C@H]2C(=O)N[C@@H](CCCNC(=N)N)C(=O)O)C(C)C)NC(=O)CNC(=O)[C@H](CC(C)C)NC(=O)CNC(=O)[C@H](CO)NC(=O)[C@H](CCSC)NC(=O)[C@H](CO)NC(=O)CNC1=O [ASB20123] (HELM PEPTIDE1{G.L.S.K.G.C.F.G.L.K.L.D.R.I.G.S.M.S.G.L.G.C.V.Q.Q.R.K.D.S.K.K.P.P.A.K.L.Q.P.R}$PEPTIDE1,PEPTIDE1,6:R3-22:R3$$$V2.0), the AUC ([1]; rat, in vivo, sc, 0.58 mg/kg) was “higher than that when ASB20123 was dissolved in saline”, the “Time to reach the maximum plasma CNP concentration (Cmax)” value ([1]; rat, in vivo, sc, 0.58 mg/kg) was “delayed” and the T1/2 ([2]; rat, in vivo, iv) was 31.3 min. The Vdss ([2]; rat, in vivo, iv) was 0.429 L/kg, the “Vdss relative to that of CNP(1–22)” value ([2]; rat, in vivo, iv) was 6.7 fold and the T1/2 ([3]; rat, in vivo, sc) was 32.1 min. The Tmax ([3]; rat, in vivo, sc) was 20.0 min and the “Anti-ASB20123 antibody in serum” value [4] was “not detected”.

In the case of “CNP(1–53): 53-residue peptide generated from pro-CNP (DLRVDTKSRAAWARLLQEHPNARKYKGANKKGLSKGCFGLKLDRIGSMSGLGC; ends and bridges not checked; cysteine pairing not given here; UniProt P23582 74-126, looked up)”, the “Stability against neutral endopeptidase (NEP)” value [5] is listed as “resistant to proteolytic inactivation” and the “Skeletal growth compared to CNP(1–22)” value [6] is listed as “more potently than that induced by CNP(1–22) administration”.

For CC[C@H](C)[C@@H]1NC(=O)[C@H](CCCNC(=N)N)NC(=O)[C@H](CC(=O)O)NC(=O)[C@H](CC(C)C)NC(=O)[C@H](CCCCN)NC(=O)[C@H](CC(C)C)NC(=O)CNC(=O)[C@H](Cc2ccccc2)NC(=O)[C@@H](NC(=O)CNC(=O)[C@H](CCCCN)NC(=O)[C@H](CO)NC(=O)[C@H](CC(C)C)NC(=O)CN)CSSC[C@@H](C(=O)O)NC(=O)CNC(=O)[C@H](CC(C)C)NC(=O)CNC(=O)[C@H](CO)NC(=O)[C@H](CCSC)NC(=O)[C@H](CO)NC(=O)CNC1=O [CNP(1–22), C-type natriuretic peptide], the “PK profile, effect of vehicle components” value ([1]; rats, sc bolus 0.58 mg/kg in vehicles containing ECM) was “not affected by its vehicle components”, the “AUC0→∞” value [2, 10] was 320 pmol・min/mL and the CLtot [2, 10] was 63.9 mL/min/kg. For the same compound, the “MRT0→∞” value [2, 10] was 1.02 min, the T1/2 [2, 10] was 1.42 min and the Vdss [2, 10] was 0.0642 L/kg. For the same compound, the BA ([3]; anesthetized male SD rats, single sc 50 nmol/kg, bioavailability, mean of 3 rats) was 19%, the “AUC0→∞” value [3, 11] was 152 pmol・min/mL and the Cmax [3, 11] was 9.02 nM. For the same compound, the “MRT0→∞” value [3, 11] was 13.9 min, the T1/2 [3, 11] was 10.0 min and the Tmax [3, 11] was 5.0 min. For the same compound, the “Clearance of exogenous peptide from the circulation” value [7] was “rapidly cleared from the circulation”.

For BMN-111, the Body length [8] is given as “increased the body length” and the Body length [9] is given as “increased the body length”.
